≈ marks a conversion by molar mass, not a printed value. Where two headings read alike, the source gives them in different places.
Key:
C. neoformans strain H99 = test: Murine model of cryptococcal meningitis, APX001 alone and with FLC (no ABT); assay type: in vivo, Cryptococcus neoformans; conditions: monotherapy 7 days; APX001 390 mg/kg TID oral gavage, FLC 80 mg/kg/day i.p.; male CD-1 mice
Procedure: The efficacies of APX001 and FLC were evaluated in a well-established mouse CM model ([34]). Since Cryptococcus infections can be hematogenously disseminated to other organs, the numbers of CFU in both lung and brain tissue were evaluated. Male CD-1 mice were infected with 5.9 × 10^4 CFU of C. neoformans strain H99 via lateral tail vein injection. Mice were assigned to four groups (n = 10), consisting of (i) treatment with APX001, (ii) treatment with APX001 plus FLC, (iii) treatment with FLC, or (iv) no treatment as a control. Treatment was initiated within 1 h after infection. APX001 was administered by oral gavage at a dose of 390 mg/kg thrice daily (TID), with each dose being administered roughly 8 h apart. […] FLC (2 mg/ml; Sagent Pharmaceuticals, Schaumburg, IL) was administered at a dose of 80 mg/kg/day intraperitoneally (i.p.).
Brain and lung burdens in mice were measured at 7 days postinfection with C. neoformans H99. Male CD-1 mice were infected with 5.9 × 10^4 CFU of C. neoformans strain H99 via the lateral tail vein. Treatment was initiated at about 1 h postinfection and continued for 7 days. APX001 was administered by oral gavage at a dose of 390 mg/kg thrice daily, with each dose being administered roughly 8 h apart. FLC (2 mg/ml; Sagent Pharmaceuticals, Schaumburg, IL) was administered at a dose of 80 mg/kg/day i.p. once daily. Fungal burden data were log10 transformed and evaluated using Kruskal-Wallis tests with Dunn's multiple-comparison test for post hoc analysis (Prism software, v5; GraphPad Software, Inc., San Diego, CA). A P value of ≤0.05 was considered statistically significant (*, P ≤ 0.05; **, P ≤ 0.01; ***, P ≤ 0.001). The 95% confidence interval (CI) is presented.
C. neoformans strain H99 was grown in yeast extract-peptone-dextrose broth at 30°C on a shaker (220 rpm) for 24 h, centrifuged (1,980 relative centrifugal force), and washed twice in phosphate-buffered saline (PBS), resuspended in PBS, and quantified by hemacytometric count. Male CD-1 mice were infected with ∼5 × 10^4 CFU per mouse via lateral tail vein injection of 100 μl. Mice were weighed, and treatment was begun within 1 h after infection. Treatments were administered daily for 7 days. Mice were weighed daily and observed for acute and chronic adverse symptoms. Mice were sacrificed on day 8, and the brain and left lung were homogenized and cultured for quantitative determination of the tissue burden (number of CFU per gram of tissue). Tissues were homogenized for 25 s in 1 ml phosphate-buffered saline using two 6.5-mm steel beads and a Mini-Beadbeater 16 apparatus (Biospec Products, Inc., Bartlesville, OK) and serially diluted in 10-fold steps. Aliquots (100 μl) of homogenate were plated and incubated for 3 to 7 days at 37°C. Fungal burden data were log10 transformed and evaluated using Kruskal-Wallis tests with Dunn's multiple-comparison test for post hoc analysis (Prism software, v5; GraphPad Software, Inc., San Diego, CA). A P value of ≤0.05 was considered statistically significant.

C. neoformans = system: C. neoformans; parameters: method as in PMID 23740727; conditions: 46 strains of C. neoformans, global study; cited from earlier work
C. neoformans H99 = test: Microtiter checkerboard synergy with FLC; assay type: cell-based, Cryptococcus neoformans; conditions: in combination with FLC, MIC read at 50% inhibition, synergy FICI < 0.5
Procedure: An important consideration for developing a new treatment for CM is the potential for inclusion in combination therapy. We evaluated the synergy of APX001A and APX2020 in combination with FLC using standard microtiter dilution techniques ([33]). […] Importantly, no antagonism was observed.
To establish the antimicrobial activity of the APX001A analogs, broth microdilution susceptibility testing was performed according to Clinical and Laboratory Standards Institute (CLSI) guidelines M27-A3 ([47]) for yeasts and M38-A2 for molds ([48]). APX001A and analogs were first diluted in DMSO to obtain intermediate dilutions. These were further diluted in microtiter plates to obtain a final concentration of 2 to 0.002 μg/ml. One microliter of DMSO was added to the no-drug control wells. The solutions were mixed on a plate shaker for 10 min, and the plates were incubated at 35°C for 40 to 48 h (C. albicans, A. fumigatus) and 72 h (C. neoformans). The minimum concentration that led to a 50% reduction in fungal growth compared to that for the control (determined with the aid of a reading mirror) was determined as the MIC for C. albicans and C. neoformans. The minimum concentration that led to the shortening of hyphae compared to the hyphal growth in DMSO control wells was determined as the minimum effective concentration (MEC) for A. fumigatus (as read for the echinocandins). […]

[1] = Single-dose mouse pharmacokinetics of prodrugs with or without ABT; assay type: in vivo; conditions: for AUC: male, CD-1, mouse, plasma, 26 mg/kg
Procedure: The area under the curve (AUC) was calculated from time zero to the time of the last measurable concentration. The active metabolite concentrations in plasma (APX001A, APX2039, APX2020, and APX2041) were determined by liquid chromatography-tandem mass spectrometry. PK parameters were determined using Phoenix WinNonlin (v7.0) software and a noncompartmental model.

PIGW protein = system: PIGW protein; parameters: method as in PMID 22143530; conditions: closest mammalian ortholog of fungal Gwt1; cited from earlier work
[2] = system: Candida tropicalis strains; parameters: method as in ref 24 = [24]; 24. Watanabe NA , Horii T , Miyazaki M , Hata K 2011 In vitro activity of E1210 and in vivo activity of E1211, a water-soluble prodrug of E1210, in combination with other antifungals, abstr F1-1378 .; conditions: cited from earlier work
strains of C. albicans = system: strains of C. albicans; parameters: method as in ref 24 = [24]; 24. Watanabe NA , Horii T , Miyazaki M , Hata K 2011 In vitro activity of E1210 and in vivo activity of E1211, a water-soluble prodrug of E1210, in combination with other antifungals, abstr F1-1378 .; conditions: cited from earlier work
[3] = mouse, in vivo; cited from earlier work

Ratio of AUC with ABT/AUC without ABT, i.p. dosing ([1]; 26 mg/kg prodrug)	Ratio of AUC with ABT/AUC without ABT, p.o. dosing ([1]; 26 mg/kg prodrug)	AUC ([1]; intraperitoneal, AUC of analyte after 26 mg/kg prodrug, 100 mg/kg ABT orally 2 h before, read-out: Avg AUC resulting from 26-mg/kg dose, i.p. dosing + ABT) [ng·h/mL]	AUC ([1]; ip, AUC of analyte after 26 mg/kg of the corresponding prodrug, male CD-1 mice, no ABT, read-out: Avg AUC resulting from 26-mg/kg dose, i.p. dosing) [ng·h/mL]	AUC ([1]; po, AUC of analyte after 26 mg/kg prodrug, 100 mg/kg ABT orally 2 h before, read-out: Avg AUC resulting from 26-mg/kg dose, p.o. dosing + ABT) [ng·h/mL]	AUC ([1]; po, AUC of analyte in plasma after 26 mg/kg of the corresponding prodrug, male CD-1 mice, no ABT, read-out: Avg AUC resulting from 26-mg/kg dose, p.o. dosing) [ng·h/mL]	SMILES	reduction in brain fungal burden vs untreated control (C. neoformans strain H99) [log10 CFU/g]	reduction in lung fungal burden vs untreated control (C. neoformans strain H99) [log10 CFU/g]	MIC90 (C. neoformans) [µg/mL]	fractional inhibitory concentration index (FICI) (C. neoformans H99)	sensitivity of PIGW protein to inhibition (PIGW protein)	strains with synergy with FLC [2]	strains with synergy with FLC (strains of C. albicans)	half-life in mice [3] [h]
–	–	–	–	–	–	OC(Cn1cncn1)(Cn1cncn1)c1ccc(F)cc1F [FLC, fluconazole, reference compound]	1.04	1.30	4 (≈ 13.1 µM)	–	–	–	–	–
5.6	15.0	24300 ± 17700	4360 ± 110	41500 ± 8090	2760 ± 230	Nc1ncccc1-c1cc(Cc2ccc(COc3ccccn3)cc2)no1 [APX001A]	–	–	–	0.37	not sensitive to inhibition	9 of 10	2 of 20	1.40 to 2.75
